# What was measured:
# [1] = target: T1, bromodomain protein BRD4 BD1 (Homo sapiens, UniProt O60885); assay: HTRF in vitro assay, inhibitory activity against BRD4 BD1; assay type: binding; settings: BRD4(1) 30 nM in final system
# T1 construct: The proteins BRD4 BD1/BD2 used in the experiment were purchased from Active Motif Company (Cat. No. 31380/31446); purchased Active Motif 31380
# Experimental: In this example, the half inhibitory activity (IC50) of the compounds of the present invention against the bromodomain protein BRD4 BD1 was determined.
# (§1) The inhibitory activity of the compound against BRD4 BD1 was determined by using Homogeneous Time-Resolved Fluorescence (HTRF).
# (§2) The proteins BRD4 BD1/BD2 used in the experiment were purchased from Active Motif Company (Cat. No. 31380/31446); Streptavidin XL-665 (#610SAXLA) and EPIgeneous Binding Domain Kit A (#62BDAPEG) were purchased from Cisbio Bioassays Company, [Lys(5,8,12,16)Ac]H4(1-21)-biotin (#64989), and [Lys(5,8,12,16)Ac]H4(1-25) were products of AnaSpec company; OTX015 and ABBV-075 were purchased from SelleckChem. 384 Well ProxiPlate (#6008280) was purchased from PerkinElmer. The multifunctional microplate reader used for the experimental was a product of PerkinElmer, model: Envision 2104. The experimental water was Millipore-Q pure water.
# (§3) 10 mM of stock solution of compound in DMSO was diluted to 1 mM with DMSO and stored, and then diluted 10 times with Binding Domain dilution buffer (purchased from Cisbio Bioassays) for use (the concentration of DMSO in the final system was […]), 1:5 gradient dilution, a total of 5 concentrations.
# (§4) 4. Test Method: 1 Batch, 2 Duplicate Wells
# (§5) • 1) 5 μL of test compound was transferred to 45 μL of Binding Domain dilution buffer. • 2) 2 μL of 10× compound (4 μL Binding Domain dilution buffer: positive control; 6 μL enzyme buffer (purchased from Cisbio Bioassays): negative control) was transferred to the reaction plate. • 3) 4 μL of 5×BRD4(1) or BRD4(2) (30 nM in final system) was added to the reaction plate. • 4) 4 μL of 5×[Lys(5,8,12,16)Ac]H4(1-21)-biotin was added to the reaction plate, and the plate was covered with a film, and incubated at 37° C. for 30 min. • 5) A detection mixture of SA-XL665 (2×) and anti-H3K9me0-Eu(K) (2×) was prepared in detection buffer (purchased from Cisbio Bioassays). • 6) 10 μL of detection mixture (2×) was added to each well, and incubated for 3 h at room temperature, and the mp value was read using a multi-plate reader Envision. The parameters were set as follows.
# [2] = target: T2, bromodomain protein BRD4 BD2 (Homo sapiens, UniProt O60885); assay: HTRF in vitro assay, inhibitory activity against BRD4 BD2; assay type: binding; settings: BRD4(2) 30 nM in final system
# T2 construct: The proteins BRD4 BD1/BD2 used in the experiment were purchased from Active Motif Company (Cat. No. 31380/31446); purchased Active Motif 31446
# Experimental: as §1, §2, §3, §4, §5
Compound,IC50 [1] [µM],IC50 [2] [µM]
"CC(c1ccccc1)c1cn(C)c(=O)c2[nH]c(C(=O)Nc3cnn(C)c3)cc12 (centres unmarked) [Compound A12, 6-methyl-N-(1-methyl-1H-pyrazol-4-yl)-7-oxo-4-(1-phenethyl)-6,7-dihydro-1H-pyrrolo[2,3-c]pyridin-2-carboxamide]",0.1 to 1,≤ 0.01
"COC(c1ccccc1)c1cn(C)c(=O)c2[nH]c(-c3cnn(C)c3)cc12 (centres unmarked) [Compound A43, 4-(methoxy(phenyl)methyl)-6-methyl-2-(1-methyl-1H-pyrazol-4-yl)-1,6-dihydro-7H-pyrrolo[2,3-c]pyridin-7-one]",0.1 to 1,0.01 to 0.1
CCNC(=O)c1cc2c(C(C)c3ccc4ccccc4c3)cn(C)c(=O)c2[nH]1 (centres unmarked) [Compound A25],0.1 to 1,0.01 to 0.1
"CCNC(=O)c1cc2c(-c3nc(CO)cn3-c3ccc(C)cc3)cn(C)c(=O)c2[nH]1 [Compound A36, N-ethyl-4-(4-(hydroxymethyl)-1-(p-tolyl)-1H-imidazol-2-yl)-6-methyl-7-oxo-6,7-dihydro-1H-pyrrolo[2,3-c]pyridin-2-carboxamide]",0.1 to 1,0.01 to 0.1
"CC(c1ccccc1)c1cn(C)c(=O)c2[nH]c(C(=O)NC3CC3)cc12 (centres unmarked) [Compound A8, N-cyclopropyl-6-methyl-7-oxo-4-(1-phenethyl)-6,7-dihydro-1H-pyrrolo[2,3-c]pyridin-2-carboxamide]",0.1 to 1,≤ 0.01
"CC(c1ccccc1)c1cn(C)c(=O)c2c(NC(=O)OC(C)(C)C)c(-c3cnn(C)c3)oc12 (centres unmarked) [Compound A61, tert-butyl (5-methyl-2-(1-methyl-1H-pyrazol-4-yl)-4-oxo-7-(1-phenethyl)-4,5-dihydrofuro[3,2-c]pyridin-3-yl carbamate]",0.1 to 1,≤ 0.01
"CC(c1ccc(O)cc1)c1cn(C)c(=O)c2[nH]c(-c3cnn(C4COC4)c3)cc12 (centres unmarked) [Compound A72, 4-(1-(4-hydroxyphenyl)ethyl)-6-methyl-2-(1-(oxetan-3-yl)-1H-pyrazol-4-yl)-1,6-dihydro-7H-pyrrolo[2,3-c]pyridin-7-one]",0.1 to 1,0.01 to 0.1
"CC(c1ccccc1)c1cn(C)c(=O)c2[nH]c(-c3cnoc3)cc12 (centres unmarked) [Compound A20, 2-(isoxazol-4-yl)-6-methyl-4-(1-phenethyl)-1H-pyrrolo[2,3-c]pyridin-7(6H)-one]",0.1 to 1,0.01 to 0.1
"CCNC(=O)n1cc2c(Cc3ccccc3)cn(C)c(=O)c2c1 [Compound A3, 7-benzyl-N-ethyl-5-methyl-4-oxo-4,5-dihydro-2H-pyrrolo[3,4-c]pyridin-2-carboxamide]",0.1 to 1,0.01 to 0.1

# Other lines, results leading:
IC50 [1] [µM],IC50 [2] [µM],Compound
0.1 to 1,0.01 to 0.1,"CCNC(=O)c1cc2c(C(C)c3ccc4ccccc4c3)cn(C)c(=O)c2[nH]1 (centres unmarked) [Compound A22, N-ethyl-6-methyl-4-(1-(naphthalen-2-yl)ethyl)-7-oxo-6,7-dihydro-1H-pyrrolo[2,3-c]pyridin-2-carboxamide]"
0.1 to 1,0.01 to 0.1,Cn1cc(-c2cc3c(C(O)c4ccccc4)cn(C)c(=O)c3[nH]2)cn1 (centres unmarked) [Compound A44]
0.1 to 1,0.01 to 0.1,Cn1cc(C(c2ccccc2)c2ccccc2)c2cc(-c3cnn(C4COC4)c3)[nH]c2c1=O [Compound A71]
0.1 to 1,≤ 0.01,"CC(c1ccccc1)c1cn(C)c(=O)c2[nH]c(-c3cn[nH]c3)cc12 (centres unmarked) [Compound A15, 6-methyl-4-(1-phenethyl)-2-(1H-pyrazol-4-yl)-1,6-dihydro-7H-pyrrolo[2,3-c]pyridin-7-one]"
0.1 to 1,0.01 to 0.1,"4-(methoxy(phenyl)methyl)-6-methyl-2-(1-(oxetan-3-yl)-1H-pyrazol-4-yl)-1-tolyl-1,6-dihydro-7H-pyrrolo[2,3-c]pyridin-7-one [Compound A70]"
0.1 to 1,0.01 to 0.1,CCNC(=O)c1cc2c(C(c3ccccc3)c3ccccc3O)cn(C)c(=O)c2[nH]1 (centres unmarked) [Compound A28]
0.01 to 0.1,0.01 to 0.1,Cc1ccc(-n2c(-c3cn(C)c(=O)c4[nH]c(-c5cnn(C)c5)cc34)nc3ncccc32)cc1 [Compound A50]

# From patent US12649735B2 (HAIHE BIOPHARMA CO., LTD., priority 2019, dated 2026)
